The structures appear in SMILES notation.

For the first assay, the system named is P. falciparum (NF54 or 3D7 strain). Nature of the assay: Assay for P. falciparum proliferation in infected human blood cells (SYBR Green). The settings on record: Plasmodium falciparum, Erythrocyte, 72 h, NF54 or 3D7 infected human erythrocytes, 72 hours; read-out: EC50 (nM), inhibitory efficacy in delaying P. falciparum proliferation in infected human blood cells. The assay is classed as cell-based, Plasmodium falciparum. The protocol: Assay for P. falciparum Proliferation in Infected Human Blood Cells
Compounds of the invention can be assayed to measure their capacity to inhibit proliferation of P. falciparum parasitemia in infected red blood cells. This parasite proliferation assay measures the increase in parasite DNA content using a DNA intercalating dye, SYBR Green® (INVITROGEN®) which has a high affinity for double stranded DNA.
NF54 or 3D7 P. falciparum strain is grown in complete culturing media until parasitemia reaches 3% to 8% with O+ human erythrocytes. […] 20 μl of screening media is dispensed into 384 well assay plates. 50 nl of compounds of the invention (in DMSO), including antimalarial controls (mefloquine, pyrimethamine and artemisinin), are then transferred into the assay plates, as well as DMSO alone to serve as a negative control for inhibition. Then 30 μl of a suspension of a NF54 or 3D7 P. falciparum infected erythrocytes in screening media is dispensed into the assay plates such that the final hematocrit is 2.5% with a final parasitemia of 0.3%. The plates are placed in a 37° C. incubator for 72 hours in a low oxygen environment containing 93% N2, 4% CO2, and 3% O2 gas mixture. 10 μl of lysis buffer (saponin, triton-X, EDTA) containing a 10× solution of SYBR Green I® in RPMI media is dispensed into the plates. The plates are lidded and kept at room temperature overnight for the lysis of the infected red blood cells. The fluorescence intensity is measured (excitation […], emission 530 nm) using the Envision™ system (Perkin Elmer).
Turning to `COc1ccc(-c2cnc3cnc(C(=O)N(C)c4ccc(C#N)cc4)cn23)cc1C` [Compound 30, N-(4-cyanophenyl)-3-(4-methoxy-3-methylphenyl)-N-methylimidazo[1,2-a]pyrazine-6-carboxamide], the EC50 was determined as 2510 nM.

Consider `CN(C(=O)c1cn2c(-c3ccc(C(F)(F)F)cc3Cl)cnc2cn1)c1ccc(C#N)cc1` [Compound 31, 3-[2-chloro-4-(trifluoromethyl)phenyl]-N-(4-cyanophenyl)-N-methylimidazo[1,2-a]pyrazine-6-carboxamide], for which the EC50 turned out to be 1200 nM.

Consider `CN(C(=O)c1cn2c(-c3ccc(C(F)(F)F)cc3)cnc2cn1)c1ccc(F)c(Cl)c1` [Compound 32, N-(3-chloro-4-fluorophenyl)-N-methyl-3-[4-(trifluoromethyl)phenyl]imidazo[1,2-a]pyrazine-6-carboxamide], for which the EC50 worked out at 135 nM.

Regarding `CC(=O)c1cnc2cnc(C(=O)N(C)c3ccc(Cl)nc3)cn12` [Compound 33, 3-acetyl-N-(6-chloropyridin-3-yl)-N-methylimidazo[1,2-a]pyrazine-6-carboxamide], the EC50 is 4710 nM. Same read-out and setting: the figure for `CN(C(=O)c1cn2c(-c3ccc(C(F)(F)F)cc3)cnc2cn1)c1cccc(Cl)c1` [Compound 35, N-(3-chlorophenyl)-N-methyl-3-[4-(trifluoromethyl)phenyl]imidazo[1,2-a]pyrazine-6-carboxamide] is 462 nM. As for `CN(C)c1ccc(-c2cnc3cnc(CN(C)c4ccc(F)cc4)cn23)cc1` [Compound 36, 4-(6-{[(4-fluorophenyl)(methyl)amino]methyl}imidazo[1,2-a]pyrazin-3-yl)-N,N-dimethylaniline], the EC50 was 329 nM.

With `CN(C)c1ccc(-c2cnc3cnc(CN(C)c4ccc(Cl)cc4)cn23)cc1` [Compound 37, 4-(6-{[(4-chlorophenyl)(methyl)amino]methyl}imidazo[1,2-a]pyrazin-3-yl)-N,N-dimethylaniline], the EC50 was found to be 640 nM.

For `CCc1ccc(N(C)C(=O)c2cn3c(-c4ccc(C(F)(F)F)cc4)cnc3cn2)nc1` [Compound 39, N-(5-ethylpyridin-2-yl)-N-methyl-3-[4-(trifluoromethyl)phenyl]imidazo[1,2-a]pyrazine-6-carboxamide], the EC50 came to 1080 nM. Consider `CN(C(=O)c1cn2c(-c3ccc(C(F)(F)F)cc3)cnc2cn1)c1ccccc1OC(F)(F)F` [Compound 40, N-methyl-N-[2-(trifluoromethoxy)phenyl]-3-[4-(trifluoromethyl)phenyl]imidazo[1,2-a]pyrazine-6-carboxamide], for which the EC50 was 3320 nM.

As to `COc1ccc(-c2cnc3cnc(C(=O)N(C)c4ccc(Cl)cc4Cl)cn23)cc1` [Compound 41, N-(2,4-dichlorophenyl)-3-(4-methoxyphenyl)-N-methylimidazo[1,2-a]pyrazine-6-carboxamide], the EC50 was 97 nM.

As for `COc1ccc(-c2cnc3cnc(C(=O)N(C)c4ccc(C#N)cc4)cn23)cc1Cl` [Compound 42, -(3-chloro-4-methoxyphenyl)-N-(4-cyanophenyl)-N-methylimidazo[1,2-a]pyrazine-6-carboxamide], the EC50 came out at 333 nM. The same measure, in the same setting: as for `CN(C(=O)c1cn2c(-c3ccc(C(F)(F)F)cc3)cnc2cn1)c1ccc(Oc2ccccc2)cc1` [Compound 43, N-methyl-N-(4-phenoxyphenyl)-3-[4-(trifluoromethyl)phenyl]imidazo[1,2-a]pyrazine-6-carboxamide], the figure is above 10000 nM; as for `CN(Cc1cn2c(-c3ccc(Cl)cc3)cnc2cn1)c1ccc(Cl)cc1` [Compound 44, 4-chloro-N-{[3-(4-chlorophenyl)imidazo[1,2-a]pyrazin-6-yl]methyl}-N-methylaniline], 206 nM. As to `Cc1ccc(N(C)Cc2cn3c(-c4ccc5c(cnn5C)c4)cnc3cn2)nc1` [Compound 45, N,5-dimethyl-N-{[3-(1-methyl-1H-indazol-5-yl)imidazo[1,2-a]pyrazin-6-yl]methyl}pyridin-2-amine], the EC50 stood at 178 nM.

Consider `CN(C(=O)c1cn2c(-c3cccc(-c4cn[nH]c4)c3)cnc2cn1)c1ccc(C#N)cc1` [Compound 46, N-(4-cyanophenyl)-N-methyl-3-[3-(1H-pyrazol-4-yl)phenyl]imidazo[1,2-a]pyrazine-6-carboxamide], for which the EC50 is above 10000 nM. Still for that read-out and setting: as for `Cc1ccc(N(C)Cc2cn3c(-c4ccc(-c5ccn[nH]5)cc4)cnc3cn2)nc1` [Compound 47, N,5-dimethyl-N-({3-[4-(1H-pyrazol-5-yl)phenyl]imidazo[1,2-a]pyrazin-6-yl}methyl)pyridin-2-amine], the figure is 1240 nM; as for `COc1cccc(-c2cnc3cnc(C(=O)N(C)c4ccc(C#N)cc4)cn23)c1` [Compound 48, N-(4-cyanophenyl)-3-(3-methoxyphenyl)-N-methylimidazo[1,2-a]pyrazine-6-carboxamide], 5100 nM.

`CN(C(=O)c1cn2c(-c3ccc(C(F)(F)F)cc3)cnc2cn1)c1ccc(Cl)cc1Cl` [Compound 49, N-(2,4-dichlorophenyl)-N-methyl-3-[4-(trifluoromethyl)phenyl]imidazo[1,2-a]pyrazine-6-carboxamide]: the EC50 was determined as 314 nM. Still for that read-out and setting: as for `CN(C(=O)c1cn2c(-c3ccc(C(F)(F)F)cc3)cnc2cn1)c1ccc(OC(F)F)cc1` [Compound 50, N-[4-(difluoromethoxy)phenyl]-N-methyl-3-[4-(trifluoromethyl)phenyl]imidazo[1,2-a]pyrazine-6-carboxamide], the figure is 828 nM; as for `CN(C(=O)c1cn2c(-c3ccc(C(F)(F)F)cc3)cnc2cn1)c1ccc(-c2cnn(C)c2)cc1` [Compound 51, N-methyl-N-[4-(1-methyl-1H-pyrazol-4-yl)phenyl]-3-[4-(trifluoromethyl)phenyl]imidazo[1,2-a]pyrazine-6-carboxamide], above 9720 nM. Still for that read-out and setting: as for `CN(C(=O)c1cn2c(-c3ccc(C(F)(F)F)cc3)cnc2cn1)c1ccc(F)c(Br)c1` [Compound 52, N-(3-bromo-4-fluorophenyl)-N-methyl-3-[4-(trifluoromethyl)phenyl]imidazo[1,2-a]pyrazine-6-carboxamide], the figure is 187 nM; as for `CN(C(=O)c1cn2c(-c3ccc4c(cnn4C)c3)cnc2cn1)c1ccc(F)c(F)c1` [Compound 53, N-(3,4-difluorophenyl)-N-methyl-3-(1-methyl-1H-indazol-5-yl)imidazo[1,2-a]pyrazine-6-carboxamide], 12 nM. In the case of `CN(C(=O)c1cn2c(-c3ccc(C(F)(F)F)cc3)cnc2cn1)c1cccnc1F` [Compound 54, N-(2-fluoropyridin-3-yl)-N-methyl-3-[4-(trifluoromethyl)phenyl]imidazo[1,2-a]pyrazine-6-carboxamide], the EC50 is above 9280 nM. On the same count and under the same terms, the figure for `CN(C(=O)c1cn2c(-c3ccc(C(F)(F)F)cc3)cnc2cn1)c1ccc(Cl)c(Cl)c1` [Compound 55, N-(3,4-dichlorophenyl)-N-methyl-3-[4-(trifluoromethyl)phenyl]imidazo[1,2-a]pyrazine-6-carboxamide] is 160 nM; for `Cc1cc(N(C)C(=O)c2cn3c(-c4ccc(C(F)(F)F)cc4)cnc3cn2)ccc1Cl` [Compound 56, N-(4-chloro-3-methylphenyl)-N-methyl-3-[4-(trifluoromethyl)phenyl]imidazo[1,2-a]pyrazine-6-carboxamide] it is 491 nM; for `CN(C(=O)c1cn2c(-c3ccc(C(F)F)cc3)cnc2cn1)c1ccc(C#N)cc1` [Compound 57, N-(4-cyanophenyl)-3-[4-(difluoromethyl)phenyl]-N-methylimidazo[1,2-a]pyrazine-6-carboxamide] it is 70 nM. Same read-out and setting: the figure for `CN(C(=O)c1cn2c(-c3ccc(C(F)(F)F)cc3)cnc2cn1)c1ccc(Br)nc1` [Compound 58, N-(6-bromopyridin-3-yl)-N-methyl-3-[4-(trifluoromethyl)phenyl]imidazo[1,2-a]pyrazine-6-carboxamide] is 1140 nM; for `COc1cc(Cl)ccc1N(C)C(=O)c1cn2c(-c3ccc(C(F)(F)F)cc3)cnc2cn1` [Compound 59, N-(4-chloro-2-methoxyphenyl)-N-methyl-3-[4-(trifluoromethyl)phenyl]imidazo[1,2-a]pyrazine-6-carboxamide] it is 35 nM.

As for `CN(C(=O)c1cn2c(-c3ccc(Cl)c(C(F)(F)F)c3)cnc2cn1)c1ccc(C#N)cc1` [Compound 60, 3-[4-chloro-3-(trifluoromethyl)phenyl]-N-(4-cyanophenyl)-N-methylimidazo[1,2-a]pyrazine-6-carboxamide], the EC50 was 2630 nM.

With `Cc1ccc(-c2cnc3cnc(C(=O)N(C)c4ccc(Cl)cc4Cl)cn23)cc1` [Compound 61, N-(2,4-dichlorophenyl)-N-methyl-3-(4-methylphenyl)imidazo[1,2-a]pyrazine-6-carboxamide], the EC50 worked out at 1370 nM. Same read-out and setting: the figure for `CN(Cc1cn2c(-c3ccc4c(cnn4C)c3)cnc2cn1)c1ccc(C#N)cc1` [Compound 62, 4-[methyl({[3-(1-methyl-1H-indazol-5-yl)imidazo[1,2-a]pyrazin-6-yl]methyl})amino]benzonitrile] is 82 nM.

The assay is the same for the next values; noted with them: Plasmodium falciparum, Erythrocyte, infected human red blood cells; read-out: EC50, P. falciparum Proliferation Assay.
With `Cc1ccc(N(C)Cc2cn3c(-c4ccc(-c5ccn[nH]5)cc4)cnc3cn2)nc1` [Compound 47, N,5-dimethyl-N-({3-[4-(1H-pyrazol-5-yl)phenyl]imidazo[1,2-a]pyrazin-6-yl}methyl)pyridin-2-amine], the EC50 is below 50 nM.

The values above are taken from patent US20150291598A1 (NOVARTIS AG, priority 2012, published 2015).
